# Tests used:
# [1] = in fish and flax seed oils; cited from earlier work
# [2] = natural vitamin K; cited from earlier work
# rheumatoid arthritis = test: Case study: patient with rheumatoid arthritis treated orally; type: in vivo, human; details: same patient, NSAIDs taken during the first 5 weeks of the disease onset
# Experimental: This treatment was complemented with the regular practice of moderate physical exercises every 2-3 days, including exercises with weights, the application of cold or hot compresses, relaxation techniques, elevation of affected body parts, and at least 8 hours of sleep. Pain was treated with acetaminophen when needed. […] Then, the Omega 3-6-9 supplement was removed from the treatment and 100 mg niacin was added (Rite Aid Corporation, Harrisburg, Pa., USA) once a day during a week, twice a day for another week and 3 times daily for one more week (to a final dose of 300 mg/day). […] They never took DMARDs or steroids.
# osteoarthritis = details: subjects with OA, 3 g per day; cited from earlier work
# [3] = tested on: undercarboxylated osteocalcin; details: healthy subjects, per day; cited from earlier work
molecule,measurement,setting,value
vitamin K,solubility,[1],soluble
same,safe dose,[2],up to 15 milligrams per day
O=C(O)Cc1ccccc1Nc1c(Cl)cccc1Cl [diclofenac],benefit of NSAIDs,rheumatoid arthritis,without any significative beneficial result
CC(C)Cc1ccc(C(C)C(=O)O)cc1 (stereo not drawn) [ibuprofen],benefit of NSAIDs,rheumatoid arthritis,without any significative beneficial result
NC(=O)c1cccnc1 [nicotinamide],NSAID medication and joint mobility compared with placebo controls,osteoarthritis,reduced their non-steroidal anti-inflammatory (NSAID) medication and increased joint mobility significantly
"CC1=C(C/C=C(\C)CCC[C@H](C)CCC[C@H](C)CCCC(C)C)C(=O)c2ccccc2C1=O [vitamin K1, 2-methyl-3-phytyl-1-4-naphthoquinone]",daily intake at which circulating undercarboxylated osteocalcin began to decrease,[3],300 µg

# From patent US8211947B2, “Composition and method for treating and preventing musculoskeletal and connective tissue disorders” (priority 2008, dated 2012)
